# Reference: the supplement of paper PMC10307832
# Columns and labels:
# Experiment in all cases: relative viability (nuclei count vs DMSO), 5 days (fraction); higher = more cells survive
# NCI-H2085 = system: NCI-H2085
# Method in brief: (§1)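 A single step with final 0.05% Triton X-100, 1% formaldehyde and 1 ug/ml Hoechst fixed the cells and stained nuclei 5 days after treatment. Lung cancer cell lines in 1536-well plates had been treated by pin tool the day after seeding with one drug alone or a fixed anchor-drug dose plus five library-drug doses (not always all listed) in √10 steps, and nuclei were counted on 4× images. Relative viability is the ratio of nuclei in treated wells to nuclei in vehicle wells, taken as the median of duplicate plates.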
# ChaGo-K-1 = system: ChaGo-K-1
# Method in brief: as §1
# NCI-H2170 = system: NCI-H2170
# Method in brief: as §1
# ABC-1 = system: ABC-1
# Method in brief: as §1
# SK-MES-1 = system: SK-MES-1
# Method in brief: as §1
# HOP-62 = system: HOP-62
# Method in brief: as §1
# NCI-H727 = system: NCI-H727
# Method in brief: as §1
# NCI-H1755 = system: NCI-H1755
# Method in brief: as §1
# NCI-H322M = system: NCI-H322M
# Method in brief: as §1
# NCI-H2009 = system: NCI-H2009
# Method in brief: as §1
# UMC-11 = system: UMC-11
# Method in brief: as §1
# LCLC-97TM1 = system: LCLC-97TM1
# Method in brief: as §1
# RERF-LC-KJ = system: RERF-LC-KJ
# Method in brief: as §1
# NCI-H1437 = system: NCI-H1437
# Method in brief: as §1
# LOU-NH91 = system: LOU-NH91
# Method in brief: as §1
# NCI-H23 = system: NCI-H23
# Method in brief: as §1
# NCI-H650 = system: NCI-H650
# Method in brief: as §1
# NCI-H2405 = system: NCI-H2405
# Method in brief: as §1
# NCI-H2023 = system: NCI-H2023
# Method in brief: as §1
# NCI-H1355 = system: NCI-H1355
# Method in brief: as §1
# HCC-78 = system: HCC-78
# Method in brief: as §1
# NCI-H1792 = system: NCI-H1792
# Method in brief: as §1
smiles,measurement,setting,value
CCCCCCCCCCCC1=C(O)C(=O)C=C(O)C1=O [Embelin] + CS(=O)(=O)N1CCN(Cc2cc3nc(-c4cccc5[nH]ncc45)nc(N4CCOCC4)c3s2)CC1 [Pictilisib] (partner 1 µM),relative viability,NCI-H2085; first compound 0.08 µM,0.44
same,relative viability,NCI-H2085; first compound 0.8 µM,0.404
same,relative viability,NCI-H2085; first compound 2.53 µM,0.44
same,relative viability,NCI-H2085; first compound 8 µM,0.46
same,relative viability,ChaGo-K-1; first compound 0.08 µM,1
same,relative viability,ChaGo-K-1; first compound 0.8 µM,1.22
same,relative viability,ChaGo-K-1; first compound 2.53 µM,0.626
same,relative viability,ChaGo-K-1; first compound 8 µM,0.428
same,relative viability,NCI-H2170; first compound 0.08 µM,0.307
same,relative viability,NCI-H2170; first compound 0.8 µM,0.325
same,relative viability,NCI-H2170; first compound 2.53 µM,0.366
same,relative viability,NCI-H2170; first compound 8 µM,0.286
same,relative viability,ABC-1; first compound 0.08 µM,0.876
same,relative viability,ABC-1; first compound 0.8 µM,0.861
same,relative viability,ABC-1; first compound 2.53 µM,0.678
same,relative viability,ABC-1; first compound 8 µM,0.646
same,relative viability,SK-MES-1; first compound 0.08 µM,0.347
same,relative viability,SK-MES-1; first compound 0.8 µM,0.421
same,relative viability,SK-MES-1; first compound 2.53 µM,0.35
same,relative viability,SK-MES-1; first compound 8 µM,0.359
same,relative viability,HOP-62; first compound 0.08 µM,0.883
same,relative viability,HOP-62; first compound 0.8 µM,0.964
same,relative viability,HOP-62; first compound 2.53 µM,0.433
same,relative viability,HOP-62; first compound 8 µM,0.503
same,relative viability,NCI-H727; first compound 0.08 µM,0.359
same,relative viability,NCI-H727; first compound 0.8 µM,0.526
same,relative viability,NCI-H727; first compound 2.53 µM,0.355
same,relative viability,NCI-H727; first compound 8 µM,0.51
same,relative viability,NCI-H1755; first compound 0.08 µM,0.502
same,relative viability,NCI-H1755; first compound 0.8 µM,0.499
same,relative viability,NCI-H1755; first compound 2.53 µM,0.367
same,relative viability,NCI-H1755; first compound 8 µM,0.333
same,relative viability,NCI-H322M; first compound 0.08 µM,0.518
same,relative viability,NCI-H322M; first compound 0.8 µM,0.612
same,relative viability,NCI-H322M; first compound 2.53 µM,0.576
same,relative viability,NCI-H322M; first compound 8 µM,0.478
same,relative viability,NCI-H2009; first compound 0.08 µM,0.947
same,relative viability,NCI-H2009; first compound 0.8 µM,1.09
same,relative viability,NCI-H2009; first compound 2.53 µM,0.659
same,relative viability,NCI-H2009; first compound 8 µM,0.679
same,relative viability,UMC-11; first compound 0.08 µM,0.852
same,relative viability,UMC-11; first compound 0.8 µM,1
same,relative viability,UMC-11; first compound 2.53 µM,1.11
same,relative viability,UMC-11; first compound 8 µM,0.667
same,relative viability,LCLC-97TM1; first compound 0.8 µM,0.21
same,relative viability,LCLC-97TM1; first compound 2.53 µM,0.184
same,relative viability,LCLC-97TM1; first compound 8 µM,0.122
same,relative viability,RERF-LC-KJ; first compound 0.08 µM,0.494
same,relative viability,RERF-LC-KJ; first compound 0.8 µM,0.652
same,relative viability,RERF-LC-KJ; first compound 2.53 µM,0.618
same,relative viability,RERF-LC-KJ; first compound 8 µM,0.587
same,relative viability,NCI-H1437; first compound 0.08 µM,0.469
same,relative viability,NCI-H1437; first compound 0.8 µM,0.48
same,relative viability,NCI-H1437; first compound 2.53 µM,0.5
same,relative viability,NCI-H1437; first compound 8 µM,0.364
same,relative viability,LOU-NH91; first compound 0.08 µM,0.543
same,relative viability,LOU-NH91; first compound 0.8 µM,0.597
same,relative viability,LOU-NH91; first compound 2.53 µM,0.552
same,relative viability,LOU-NH91; first compound 8 µM,0.459
same,relative viability,NCI-H23; first compound 0.08 µM,0.51
same,relative viability,NCI-H23; first compound 0.8 µM,0.573
same,relative viability,NCI-H23; first compound 2.53 µM,0.475
same,relative viability,NCI-H23; first compound 8 µM,0.479
same,relative viability,NCI-H650; first compound 0.08 µM,0.939
same,relative viability,NCI-H650; first compound 0.8 µM,1.1
same,relative viability,NCI-H650; first compound 2.53 µM,1.06
same,relative viability,NCI-H650; first compound 8 µM,0.896
same,relative viability,NCI-H2405; first compound 0.08 µM,0.555
same,relative viability,NCI-H2405; first compound 0.8 µM,0.59
same,relative viability,NCI-H2405; first compound 2.53 µM,0.439
same,relative viability,NCI-H2405; first compound 8 µM,0.323
same,relative viability,NCI-H2023; first compound 0.08 µM,0.269
same,relative viability,NCI-H2023; first compound 0.8 µM,0.242
same,relative viability,NCI-H2023; first compound 2.53 µM,0.211
same,relative viability,NCI-H2023; first compound 8 µM,0.243
same,relative viability,NCI-H1355; first compound 0.08 µM,0.501
same,relative viability,NCI-H1355; first compound 0.8 µM,0.601
same,relative viability,NCI-H1355; first compound 2.53 µM,0.4
same,relative viability,NCI-H1355; first compound 8 µM,0.273
same,relative viability,HCC-78; first compound 0.08 µM,0.263
same,relative viability,HCC-78; first compound 0.8 µM,0.216
same,relative viability,HCC-78; first compound 2.53 µM,0.225
same,relative viability,HCC-78; first compound 8 µM,0.219
same,relative viability,NCI-H1792; first compound 0.08 µM,0.299
same,relative viability,NCI-H1792; first compound 0.8 µM,0.37
same,relative viability,NCI-H1792; first compound 2.53 µM,0.281
same,relative viability,NCI-H1792; first compound 8 µM,0.333
